This passage reports IC50 and Ki results from ChEMBL document CHEMBL1909046, “DrugMatrix in vitro pharmacology data”.

By pIC50 is commonly meant the IC50 on a negative log10 scale, so that one unit is a factor of ten. As usually defined, the pKi is −log10 of the Ki, conventionally taken in molar units.

The structures appear in SMILES notation. pIC50, pKi: −log10 of the molar value.

The target of data set [1] is T1, Muscarinic acetylcholine receptor M5 (Homo sapiens, UniProt P08912). Also: in other assays of this panel Not Active means under 50% inhibition at 10 µM.
T1 sequence (P08912 whole entry): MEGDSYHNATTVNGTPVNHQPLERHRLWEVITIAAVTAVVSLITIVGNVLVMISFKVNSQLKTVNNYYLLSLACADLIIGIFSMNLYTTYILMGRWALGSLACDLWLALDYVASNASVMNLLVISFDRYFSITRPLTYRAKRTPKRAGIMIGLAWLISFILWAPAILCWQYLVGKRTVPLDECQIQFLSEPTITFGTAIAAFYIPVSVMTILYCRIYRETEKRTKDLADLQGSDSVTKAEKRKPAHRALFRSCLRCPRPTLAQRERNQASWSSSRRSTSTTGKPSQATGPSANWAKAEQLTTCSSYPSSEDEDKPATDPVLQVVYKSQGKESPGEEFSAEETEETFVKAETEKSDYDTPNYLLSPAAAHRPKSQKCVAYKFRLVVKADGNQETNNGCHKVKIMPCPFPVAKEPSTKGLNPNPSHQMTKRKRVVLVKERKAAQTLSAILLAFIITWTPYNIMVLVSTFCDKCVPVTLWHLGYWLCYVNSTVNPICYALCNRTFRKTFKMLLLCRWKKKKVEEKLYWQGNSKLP
It is filed as cell membranes, Membrane. The following applies: cho-k1.

The nature of data set [2]: DRUGMATRIX: GABAA, Muscimol, Central radioligand binding (ligand: [3H] Muscimol). In kind it is cell membranes, Rattus norvegicus, Wistar, Brain, Membrane. The note with it: Not Active = under 50% inhibition at 10 µM.
Data set [3] can be described thus: DRUGMATRIX: Glutamate, Kainate radioligand binding (ligand: [3H] Kainic acid). In kind it is cell membranes, Rattus norvegicus, Wistar, Brain, Membrane. The following applies: Not Active = under 50% inhibition at 10 µM.
The next data set concerns the target Melanocortin receptor 5 (Homo sapiens, UniProt P33032). It is filed as cell membranes, HEK293, Membrane. The following applies: for IC50: hek293. As to all read-outs here: in other assays of this panel Not Active means under 50% inhibition at 10 µM.
Data set [4] is described as follows: DRUGMATRIX: Leukotriene, BLT (LTB4) radioligand binding (ligand: [3H]LTB4). The note with it: u-937; Not Active = under 50% inhibition at 10 µM. In kind it is cell membranes, Membrane.
Data set [5] can be described thus: DRUGMATRIX: Serotonin (5-Hydroxytryptamine) 5-HT3 radioligand binding (ligand: [3H] GR-65630). It is filed as cell membranes, Membrane. The note with it: hek293; Not Active = under 50% inhibition at 10 µM.
Data set [6] can be described thus: DRUGMATRIX: Interleukin IL-1 radioligand binding (ligand: [125I] interleukin 1beta). It is filed as cell membranes, Membrane. The note with it: nih3t3; Not Active = under 50% inhibition at 10 µM.
Data set [7] can be described thus: DRUGMATRIX: ATPase, Na+/K+ enzyme inhibition (substrate: ATP). In kind it is tissue-based, Sus scrofa, Heart. The note with it: Not Active = under 50% inhibition at 10 µM.
The target in a further data set is Cytochrome P450 2D6 (Homo sapiens, UniProt P10635). The note with it: bti-tn-5b1-4. Also: in other assays of this panel Not Active means under 50% inhibition at 10 µM.
Chain of Cytochrome P450 2D6 (P10635 whole entry): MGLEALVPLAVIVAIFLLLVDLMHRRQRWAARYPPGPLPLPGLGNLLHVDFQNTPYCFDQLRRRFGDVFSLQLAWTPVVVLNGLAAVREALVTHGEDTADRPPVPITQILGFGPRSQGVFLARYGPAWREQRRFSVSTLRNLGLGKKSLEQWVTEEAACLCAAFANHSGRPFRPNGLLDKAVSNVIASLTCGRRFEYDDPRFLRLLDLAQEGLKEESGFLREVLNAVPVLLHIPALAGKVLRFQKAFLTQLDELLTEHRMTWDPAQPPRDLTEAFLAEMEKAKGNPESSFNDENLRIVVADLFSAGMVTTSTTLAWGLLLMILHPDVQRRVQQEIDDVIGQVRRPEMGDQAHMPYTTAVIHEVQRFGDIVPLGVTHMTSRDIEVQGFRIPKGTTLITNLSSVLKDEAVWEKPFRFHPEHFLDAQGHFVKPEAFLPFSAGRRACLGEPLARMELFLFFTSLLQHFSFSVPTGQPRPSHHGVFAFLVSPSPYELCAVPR

Chain of Melanocortin receptor 5 (P33032 whole entry): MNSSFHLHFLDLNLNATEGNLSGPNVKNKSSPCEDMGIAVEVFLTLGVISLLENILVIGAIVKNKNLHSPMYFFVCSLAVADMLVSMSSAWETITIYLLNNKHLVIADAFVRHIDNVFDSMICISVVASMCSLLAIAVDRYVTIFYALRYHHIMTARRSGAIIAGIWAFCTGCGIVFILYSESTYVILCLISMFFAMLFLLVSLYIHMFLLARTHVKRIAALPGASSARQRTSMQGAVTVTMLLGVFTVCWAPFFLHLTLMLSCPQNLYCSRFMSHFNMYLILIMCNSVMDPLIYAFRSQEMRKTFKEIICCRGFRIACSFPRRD

As to `COc1cc(N)nc2[nH]c(-c3ccc(F)cc3)c(-c3ccncc3)c12`, the IC50 result (in [1]; in [2]; in data set [3]; at Melanocortin receptor 5; in [4]; in [5]) was “Not Active” each time. In addition, the IC50 entry in [6] and in [7] was “Not Active” in each case. Besides, the Ki entry in data set [2], in [3], in data set [4], in data set [5], in data set [6] and in data set [7] was “Not Active” throughout.
Take `CNS(=O)(=O)Cc1ccc2[nH]cc(CCN(C)C)c2c1`: the IC50 result (in data set [1]; in [2]; against Cytochrome P450 2D6; in data set [3]; against Melanocortin receptor 5; in data set [4]) was “Not Active” in each case. Moreover, the IC50 result in [5], in [6] and in [7] was “Not Active” throughout. For the same compound, the Ki entry (in data set [2]; on Cytochrome P450 2D6; in data set [3]; in data set [4]; in data set [5]; in [6]) was “Not Active” each time. Further, the Ki result in data set [7] is reported as “Not Active”.
Take `CCCc1nn(C)c2c(=O)[nH]c(-c3cc(S(=O)(=O)N4CCN(C)CC4)ccc3OCC)nc12`: the IC50 entry (in data set [1]; in data set [2]; against Cytochrome P450 2D6; in data set [3]; against Melanocortin receptor 5; in [4]) was “Not Active” throughout. Also, the IC50 result in [5], in data set [6] and in data set [7] was “Not Active” in each case. For the same compound, the Ki entry (in [2]; at Cytochrome P450 2D6; in [3]; in [4]; in data set [5]; in [6]) was “Not Active” in each case. The Ki entry in data set [7] is “Not Active”.
Consider `COc1ccc(/C=C/C(=O)Nc2ccccc2C(=O)O)cc1OC`, for which the IC50 result (in data set [1]; in [2]; on Cytochrome P450 2D6; in [3]; against Melanocortin receptor 5; in data set [4]) was “Not Active” throughout. Moreover, the IC50 entry in data set [5], in data set [6] and in data set [7] was “Not Active” throughout. The Ki entry (in data set [2]; at Cytochrome P450 2D6; in data set [3]; in data set [4]; in data set [5]; in data set [6]) was “Not Active” throughout. The Ki entry in data set [7] is listed as “Not Active”.
Turning to `CCOC(N)=O`, the IC50 result (in data set [1]; in data set [2]; on Cytochrome P450 2D6; in data set [3]; at Melanocortin receptor 5; in [4]) was “Not Active” throughout. Also, the IC50 entry in data set [5], in data set [6] and in data set [7] was “Not Active” throughout. Besides, the Ki entry (in [2]; at Cytochrome P450 2D6; in data set [3]; in data set [4]; in [5]; in data set [6]) was “Not Active” in each case. The Ki entry in [7] is “Not Active”.
On to `CC(=O)Nc1nnc(S(N)(=O)=O)s1` [ACETAZOLAMIDE], for which the IC50 result (in [1]; against Cytochrome P450 2D6; against Melanocortin receptor 5) was “Not Active” in each case. For the same compound, at Cytochrome P450 2D6, the Ki entry is on record as “Not Active”.
As to `O=c1[nH]c2ccccc2n1CCCN1CCC(n2c(=O)[nH]c3cc(Cl)ccc32)CC1` [DOMPERIDONE], the IC50 result (in data set [1]; against Melanocortin receptor 5) was “Not Active” each time.
As for `CC1=C(CC(=O)O)c2cc(F)ccc2/C1=C\c1ccc(S(C)(=O)=O)cc1` [EXISULIND], the IC50 result (in [1]; in data set [2]; against Cytochrome P450 2D6; in [3]; at Melanocortin receptor 5; in data set [4]) was “Not Active” throughout. The IC50 result in [5], in data set [6] and in data set [7] was “Not Active” throughout. Also, the Ki entry (in [2]; on Cytochrome P450 2D6; in data set [3]; in [4]; in data set [5]; in data set [6]) was “Not Active” in each case. Also, the Ki entry in data set [7] is “Not Active”.
As to `CC(C)OC(=O)C(C)(C)Oc1ccc(C(=O)c2ccc(Cl)cc2)cc1` [FENOFIBRATE], the IC50 result (in [1]; on Melanocortin receptor 5) was “Not Active” in each case.
For `OCCN1CCN(CCCN2c3ccccc3Sc3ccc(C(F)(F)F)cc32)CC1` [FLUPHENAZINE], in [1], the IC50 entry is “Not Active”. In addition, the pIC50 on Melanocortin receptor 5 (read-out: IC50) is 5.02. Further, the pKi at Melanocortin receptor 5 (read-out: Ki) is 5.05.
Take `CN1C2CCCC1CC(NC(=O)c1nn(C)c3ccccc13)C2` (stereo unspecified) [GRANISETRON]: the IC50 entry (in data set [1]; at Melanocortin receptor 5) was “Not Active” in each case.
As to `Nc1nc2c(c(=O)[nH]1)N(C=O)C(CNc1ccc(C(=O)N[C@@H](CCC(=O)O)C(=O)O)cc1)CN2` (stereo partly specified) [LEUCOVORIN], the IC50 result (in data set [1]; in [2]; against Cytochrome P450 2D6; in data set [3]; on Melanocortin receptor 5; in data set [4]) was “Not Active” throughout. For the same compound, the IC50 result in data set [5], in data set [6] and in data set [7] was “Not Active” throughout. The Ki result (in [2]; on Cytochrome P450 2D6; in data set [3]; in data set [4]; in [5]; in data set [6]) was “Not Active” in each case. Moreover, in data set [7], the Ki entry was “Not Active”.
Regarding `CC[C@@H](CO)NC(=O)[C@@H]1C=C2c3cccc4c3c(cn4C)C[C@H]2N(C)C1` [METHYSERGIDE], the IC50 entry (in [1]; against Cytochrome P450 2D6; at Melanocortin receptor 5) was “Not Active” in each case. In addition, the Ki entry on Cytochrome P450 2D6 was “Not Active”.
Take `CCN(CC)CC#CCOC(=O)C(O)(c1ccccc1)C1CCCCC1` (stereo unspecified) [OXYBUTYNIN]: on Cytochrome P450 2D6, the IC50 result is “Not Active” and the Ki entry was “Not Active”. Moreover, on Melanocortin receptor 5, the IC50 result is given as “Not Active”.
Regarding `CN(CCOc1ccc(CC2SC(=O)NC2=O)cc1)c1ccccn1` (stereo unspecified) [ROSIGLITAZONE], the IC50 result (in data set [1]; in data set [2]; in data set [3]; against Melanocortin receptor 5; in data set [4]; in data set [5]) was “Not Active” throughout. For the same compound, the IC50 result in [6] and in [7] was “Not Active” throughout. Further, the Ki result in data set [2], in [3], in data set [4], in [5], in [6] and in data set [7] was “Not Active” in each case.
`CCS(=O)(=O)CCn1c([N+](=O)[O-])cnc1C` [TINIDAZOLE]: the IC50 entry (in [1]; in [2]; in [3]; on Melanocortin receptor 5; in data set [4]; in data set [5]) was “Not Active” in each case. For the same compound, the IC50 result in data set [6] and in [7] was “Not Active” each time. Also, the Ki entry in [2], in data set [3], in data set [4], in data set [5], in [6] and in [7] was “Not Active” each time.
As to `O=c1n(CCCN2CCN(c3cccc(Cl)c3)CC2)nc2ccccn12` [TRAZODONE], the IC50 entry (in data set [1]; against Cytochrome P450 2D6; at Melanocortin receptor 5) was “Not Active” each time. Moreover, the Ki entry on Cytochrome P450 2D6 is listed as “Not Active”.
Turning to `COc1ccc(CN2CCNCC2)c(OC)c1OC` [TRIMETAZIDINE], the IC50 result (in [1]; in data set [2]; in [3]; against Melanocortin receptor 5; in data set [4]; in [5]) was “Not Active” throughout. The IC50 entry in data set [6] and in data set [7] was “Not Active” each time. For the same compound, the Ki entry in data set [2], in [3], in data set [4], in data set [5], in data set [6] and in data set [7] was “Not Active” each time.
